# Experimental data published in patent US20240246940A1, “HETEROARYL DERIVATIVE COMPOUND AND USE THEREOF” (VORONOI INC., priority 2021, published 2024).
# Assays:
# [1] = test system: SK-BR-3 cells (HER2 overexpressing cell line); assay: SK-BR-3 cell proliferation inhibitory activity (CellTiter-Glo, 120 hours); type: cell-based; conditions: Homo sapiens
# Protocol: (§1) To evaluate the cell proliferation inhibitory activity of the compound according to the present invention on HER2 and EGFR kinases, the following method was performed using HER2 overexpressing cell lines (SK-BR-3, BT-474, and N-87) and EGFR expressing cell line (HaCaT).
# (§2) McCOY'S 5A supplemented with 10% FBS was used for SK-BR-3 cells, RPMI-1640 medium supplemented with 20% FBS was used for BT-474 cancer cells, and RPMI-1640 medium supplemented with 10% FBS was used for N-87 cancer cells. DMEM supplemented with 10% FBS was used for HaCaT cells.
# (§3) For SK-BR-3 cells, 5000 cells were aliquoted into each well of a white clear bottom 96 well plate (Corning) 48 hours before treatment with the compounds of Examples. For BT-474 cells, 5000 cells were aliquoted into each well of a white clear bottom 96 well plate (Corning) 48 hours before treatment with the compounds of Examples. For N-87 cells, 5000 cells were aliquoted into each well of a white clear bottom 96 well plate (Corning) 24 hours before treatment with the compounds of Examples. For HaCaT cells, 3000 cells were aliquoted into each well of a white clear bottom 96 well plate (Corning) 24 hours before treatment with the compounds of Examples. For SK-BR-3 cells and BT-474 cells, the compounds of Examples were diluted in dimethyl sulfoxide (three-fold dilution, a total of 11 concentrations) and injected each in an amount of 1 μl to a final concentration of 0.2 nM to 10 μM. For N-87 cells, the compounds of Examples were diluted in dimethyl sulfoxide (five-fold dilution, a total of 11 concentrations) and injected each in an amount of 0.5 μl to a final concentration of […] to 5 μM. For HaCaT cells, the compounds of Examples were diluted in dimethyl sulfoxide (three-fold dilution, a total of 11 concentrations) and injected each in an amount of 0.5 μl to a final concentration of 0.8 nM to 45 μM. For the measurement of living cells, the cells were stored at room temperature for 10 minutes using CellTiter-Glo cell viability reagent (Promega) after a certain period of time (SK-BR-3: 120 hours, BT-474: 120 hours, N-87: 72 hours, and HaCaT: 72 hours) post treatment with the compounds of Examples, and the luminescence intensity thereof was measured using a reader (SynergyNeo, Biotek). Each test was repeated three times.
# (§4) The result values were calculated as a cell growth rate (%) compared to those of the control group. A graph was created using the GraphPad Prism version 5.0 program, and GI50 values were calculated.
# [2] = test system: HaCaT cells (EGFR expressing cell line); assay: HaCaT cell proliferation inhibitory activity (CellTiter-Glo, 72 hours); type: cell-based; conditions: Homo sapiens
# Protocol: as §1, §2, §3, §4
SMILES,GI50 [1],GI50 [2]
"C=CC(=O)N1CC(Oc2cc3c(Nc4cc(-c5cnc6ccnn6c5)ccc4OC)ncnc3cc2OC)C1 [Example 32, 1-(3-((7-methoxy-4-((2-methoxy-5-(pyrazolo[1,5-a]pyrimidin-6-yl)phenyl)amino)quinazolin-6-yl)oxy)azetidin-1-yl)prop-2-en-1-one]",150 to 1000 nM,
"C=CC(=O)N1CCC(Oc2cc3c(Nc4cc(-c5ccco5)ccc4OC)ncnc3cc2OC)CC1C(F)(F)F (centres unmarked) [Example 164, 1-(4-((4-((5-(furan-2-yl)-2-methoxyphenyl)amino)-7-methoxy-quinazolin-6-yl)oxy)-2-(trifluoromethyl)piperidin-1-yl)prop-2-en-1-one]",150 to 1000 nM,≤ 150 nM
"C=CC(=O)N1CCC(Oc2cc3c(Nc4cc(-c5ccnn5C)ccc4OC)ncnc3cc2OC)CC1 [Example 75, 1-(4-((7-methoxy-4-((2-methoxy-5-(1-methyl-1H-pyrazol-5-yl)phenyl)amino)quinazolin-6-yl)oxy)piperidin-1-yl)prop-2-en-1-one]",150 to 1000 nM,> 1000 nM
"C=CC(=O)N1CCC(Oc2cc3c(Nc4cc(-c5cccs5)ccc4OC)ncnc3cc2OC)C1 (centres unmarked) [Example 63, 1-(3-((7-methoxy-4-((2-methoxy-5-(thiophen-2-yl)phenyl)amino)quinazolin-6-yl)oxy)pyrrolidin-1-yl)prop-2-en-1-one]",150 to 1000 nM,
"C=CC(=O)Nc1cc2c(Nc3cc(-c4ccc5occc5c4)ccc3OC)ncnc2cc1OC [Example 288, N-(4-((5-(benzofuran-5-yl)-2-methoxyphenyl)amino)-7-methoxyquinazolin-6-yl)acrylamide]",150 to 1000 nM,> 1000 nM
"C=CC(=O)N1CCC(Oc2cc3c(Nc4cc(-c5ccc6occc6c5)ccc4OC)ncnc3cc2OC)CC1 [Example 71, 1-(4-((4-((5-(benzofuran-5-yl)-2-methoxyphenyl)amino)-7-methoxy-quinazolin-6-yl)oxy)piperidin-1-yl)prop-2-en-1-one]",150 to 1000 nM,> 1000 nM
"C=CC(=O)N1CC(Oc2cc3c(Nc4cc(-c5ccnn5C)ccc4OC)ncnc3cc2OC)C1 [Example 42, 1-(3-((7-methoxy-4-((2-methoxy-5-(1-methyl-1H-pyrazol-5-yl)phenyl)amino)quinazolin-6-yl)oxy)azetidin-1-yl)prop-2-en-1-one]",150 to 1000 nM,
"C=CC(=O)N1CC(Oc2cc3c(Nc4cc(-c5cccnc5)ccc4OC)ncnc3cc2OC)C1 [Example 6, 1-(3-((7-methoxy-4-((2-methoxy-5-(pyridin-3-yl)phenyl)amino)quinazolin-6-yl)oxy)azetidin-1-yl)prop-2-en-1-one]",150 to 1000 nM,
"C=CC(=O)N1CCC(Oc2cc3c(Nc4cc(-c5ccccc5)ccc4OC)ncnc3cc2OC)C1 (centres unmarked) [Example 58, 1-(3-((7-methoxy-4-((4-methoxy-[1,1′-biphenyl]-3-yl)amino)quinazolin-6-yl)oxy)pyrrolidin-1-yl)prop-2-en-1-one]",150 to 1000 nM,
"C=CC(=O)N1CC(Oc2cc3c(Nc4cc(-c5ccn6ncnc6c5)ccc4OC)ncnc3cc2OC)C1 [Example 30, 1-(3-((4-((5-([1,2,4]triazolo [1,5-a]pyridin-7-yl)-2-methoxyphenyl)amino)-7-methoxy-quinazolin-6-yl)oxy)azetidin-1-yl)prop-2-en-1-one]",150 to 1000 nM,
"C=CC(=O)N1CCC(Oc2cc3c(Nc4cc(-c5ccoc5)ccc4OC)ncnc3cc2OC)C1 (centres unmarked) [Example 64, 1-(3-((4-((5-(furan-3-yl)-2-methoxyphenyl)amino)-7-methoxy-quinazolin-6-yl)oxy)pyrrolidin-1-yl)prop-2-en-1-one]",150 to 1000 nM,
"COc1ccc(-c2ccco2)cc1Nc1ncnc2cc(OC)c(OC3CCN(C(=O)/C=C/CN(C)C)CC3)cc12 [Example 120, (E)-4-(dimethylamino) 1-(4-((4-((5-(furan-2-yl)-2-methoxyphenyl)amino)-7-methoxy-quinazolin-6-yl)oxy)piperidin-1-yl)but-2-en-1-one]",150 to 1000 nM,
"C=CC(=O)N1CCC(Oc2cc3c(Nc4cc(-c5ccn6ncnc6c5)ccc4OC)ncnc3cc2OC)CC1 [Example 69, 1-(4-((4-((5-([1,2,4]triazolo[1,5-a]pyridin-7-yl)-2-methoxyphenyl)amino)-7-methoxy-quinazolin-6-yl)oxy)piperidin-1-yl)prop-2-en-1-one]",150 to 1000 nM,
"C=CC(=O)N1CC(Oc2cc3c(Nc4cc(-c5cncs5)ccc4OC)ncnc3cc2OC)C1 [Example 46, 1-(3-((7-methoxy-4-((2-methoxy-5-(thiazol-5-yl)phenyl)amino)quinazolin-6-yl)oxy)azetidin-1-yl)prop-2-en-1-one]",150 to 1000 nM,
"C=CC(=O)N1CCC(Oc2cc3c(Nc4cc(-c5ccc(C)o5)ccc4OC)ncnc3cc2OC)CC1 [Example 86, 1-(4-((7-methoxy-4-((2-methoxy-5-(5-methylfuran-2-yl)phenyl)amino)quinazolin-6-yl)oxy)piperidin-1-yl)prop-2-en-1-one]",,150 to 1000 nM
"C=CC(=O)N1CCC(Oc2cc3c(Nc4cc(-c5ccoc5)ccc4OC)ncnc3cc2OC)CC1 [Example 81, 1-(4-((4-((5-(furan-3-yl)-2-methoxyphenyl)amino)-7-methoxy-quinazolin-6-yl)oxy)piperidin-1-yl)prop-2-en-1-one]",150 to 1000 nM,
"C=CC(=O)N1CCC(Oc2cc3c(Nc4cc(-c5ccccc5)ccc4OC)ncnc3cc2OC)CC1 [Example 65, 1-(4-((7-methoxy-4-((4-methoxy-[1,1′-biphenyl]-3-yl)amino)quinazolin-6-yl)oxy)piperidin-1-yl)prop-2-en-1-one]",≤ 150 nM,

# More lines, main results first:
GI50 [1],SMILES,GI50 [2]
≤ 150 nM,"C=CC(=O)N1CCC(Nc2cc3c(Nc4cc(-c5ccco5)ccc4OC)ncnc3cc2OCCN2CCOCC2)CC1 [Example 272, 1-(4-((4-((5-(furan-2-yl)-2-methoxyphenyl)amino)-7-(2-morpholinoethoxy)quinazolin-6-yl)amino)piperidin-1-yl)prop-2-en-1-one]",≤ 150 nM
≤ 150 nM,"C=CC(=O)N1CCC(Oc2cc3c(Nc4cc(-c5ccco5)ccc4OC4COC4)ncnc3cc2OC)CC1 [Example 255, 1-(4-((4-((5-(furan-2-yl)-2-(oxetan-3-yloxy)phenyl)amino)-7-methoxyquinazolin-6-yl)oxy)piperidin-1-yl)prop-2-en-1-one]",≤ 150 nM
≤ 150 nM,"C=CC(=O)N1CC(Oc2cc3c(Nc4cc(-c5cccs5)ccc4OC)ncnc3cc2OC)C1 [Example 43, 1-(3-((7-methoxy-4-((2-methoxy-5-(thiophen-2-yl)phenyl)amino)quinazolin-6-yl)oxy)azetidin-1-yl)prop-2-en-1-one]",
≤ 150 nM,"C=CC(=O)N1CC(Oc2cc3c(Nc4cc(-c5ccccc5)ccc4OC)ncnc3cc2OC)C1 [Example 5, 1-(3-((7-methoxy-4-((4-methoxy-[1,1′-biphenyl]-3-yl)amino)quinazolin-6-yl)oxy)azetidin-1-yl)prop-2-en-1-one]",
≤ 150 nM,"C=CC(=O)N1CC(Oc2cc3c(Nc4cc(-c5ccoc5)ccc4OC)ncnc3cc2OC)C1 [Example 45, 1-(3-((4-((5-(furan-3-yl)-2-methoxyphenyl)amino)-7-methoxy-quinazolin-6-yl)oxy)azetidin-1-yl)prop-2-en-1-one]",
≤ 150 nM,"C=CC(=O)N1CC(Oc2cc3c(Nc4cc(-c5ccc6occc6c5)ccc4OC)ncnc3cc2OC)C1 [Example 37, 1-(3-((4-((5-(benzofuran-5-yl)-2-methoxyphenyl)amino)-7-methoxy-quinazolin-6-yl)oxy)azetidin-1-yl)prop-2-en-1-one]",
≤ 150 nM,"C=CC(=O)N1CC(Oc2cc3c(Nc4cc(-c5ccc(F)cc5)ccc4OC)ncnc3cc2OC)C1 [Example 7, 1-(3-((4-((4′-fluoro-4-methoxy-[1,1′-biphenyl]-3-yl)amino)-7-methoxy-quinazolin-6-yl)oxy)azetidin-1-yl)prop-2-en-1-one]",
≤ 150 nM,"C=CC(=O)N1CC(Oc2cc3c(Nc4cc(-c5ccsc5)ccc4OC)ncnc3cc2OC)C1 [Example 47, 1-(3-((7-methoxy-4-((2-methoxy-5-(thiophen-3-yl)phenyl)amino)quinazolin-6-yl)oxy)azetidin-1-yl)prop-2-en-1-one]",
≤ 150 nM,"C=CC(=O)N1CC(Oc2cc3c(Nc4cc(-c5ccco5)ccc4OC)ncnc3cc2OC)C1 [Example 44, 1-(3-((4-((5-(furan-2-yl)-2-methoxyphenyl)amino)-7-methoxy-quinazolin-6-yl)oxy)azetidin-1-yl)prop-2-en-1-one]",
